One data set relates to Typhlodromus pyri. The experiment in a line: LR50; higher = less toxic. The settings on record: not reported; mortality.
The next data set relates to Daphnia magna. The conditions noted are these: chronic/long-term; duration: 21 days; reproduction.
The subject of another data set is Folsomia candida. The conditions noted are these: chronic/long-term.
Another data set deals with Hypoaspis aculeifer. The settings on record: chronic/long-term.
The next data set deals with Apis mellifera. The settings on record: acute, mortality.

Structures are written as SMILES. Values after ≈ are worked out from the molar mass of the structure shown.

On to `O=C(O)COc1ccc(Cl)cc1Cl` [2,4-Dichlorophenoxyacetic acid], for which the LR50 in the data set on Typhlodromus pyri is above 3000 g/ha. The LD50 in the data set with Rattus norvegicus (acute) was 486 mg/kg-day; with Apis mellifera (dermal) it was above 100 µg/piece; in the data set with Apis mellifera (oral, unspecified) it was 94 µg/piece; with Colinus virginianus (acute, oral), 500 mg/kg-day. Besides, the NOAEL was 75 mg/kg-day in the data set with Rattus norvegicus (acute, clinical signs); 20.6 mg/kg-day in the data set on Rattus norvegicus (chronic); 5 mg/kg-day in the data set on Rattus norvegicus (chronic, duration: 2 years, organ weight); 15 mg/kg-day with Rattus norvegicus (subchronic, duration: 90 days, oral, histopathology: nonneoplastic); 100 mg/kg-day in the data set with Colinus virginianus (reproduction developmental). In addition, the NOEC in the data set with Daphnia magna came to 38.4 mg/L; with Folsomia candida, 1.25 mg/kg; in the data set with Pimephales promelas (chronic/long-term, duration: 32 days, growth) it was 63.4 mg/L; with Hypoaspis aculeifer, 5 mg/kg; in the data set with Tagia sp. (chronic/long-term, duration: 8 weeks), 62.5 mg/kg. In addition, the LC50 in the data set with Pimephales promelas (acute, duration: 96 hours, mortality) is 100 µg/mL (≈ 452 µM); with Tagia sp. (acute, duration: 14 days, mortality) it was 350 mg/kg.

The record behind these values is EPA's ToxValDB 9.5 (doi:10.2903/j.efsa.2014.3812).
